Laboratory results as given in US20200008426A1, “ACTIVE COMPOUND COMBINATIONS” (BAYER AKTIENGESELLSCHAFT, priority 2017, published 2020).
Like-named read-outs stand apart in the source and are kept apart here.

Legend:
[1] = test system: Colletotrichum coccodes; assay: In vivo preventive test on Colletotrichum (tomatoes); conditions: 3 days after inoculation
Method: (§1) The test is evaluated 3 days after the inoculation.

[2] = test system: Phakopsora pachyrhizi; assay: In vivo preventive test on Phakopsora (soybeans); conditions: 7 days after inoculation
[3] = test system: Alternaria solani; assay: In vivo preventive test on Alternaria (tomatoes)
Method: The plants are then placed in an incubation cabinet at approximately 20° C. and a relative atmospheric humidity of 100%.
as §1

[4] = test system: Puccinia triticina; assay: In vivo preventive Puccinia triticina test (wheat); conditions: 8 days after inoculation
Method: After the spray coating has been dried, the plants are sprayed with a spore suspension of Puccinia triticina.
The test is evaluated 8 days after the inoculation.

[5] = test system: fish (Danio rerio) embryos; assay: In vivo ecotoxicity screening test on fish (Danio rerio); conditions: active compound alone; fish embryos, 96 h, 28.5° C.
Method: with ECxi the Effect Concentration (EC) of each chemical i (in ppm) causing x % effect on the ecotoxicity test endpoint.
For each compound combination, the predicted ECx value is calculated. It is then compared to an experimentally measured value. The ratio of predicted versus measured effect for the combination (thereafter called the Model Deviation Ratio or MDR) is then calculated.
The environmental effect of the compound combinations was measured experimentally in laboratory ecotoxicity screening studies with fish (Danio rerio). […] Mortality was recorded after 96 h for each tested concentration and a reference control. […] Then, the MDR values were calculated.
• Solvent: 0.5% by weight dimethyl sulfoxide
This concentrate is then diluted with water to the desired a.i. concentration, leading to a maximal solvent concentration of 0.5% by weight. The compounds alone and the combinations were tested for five increasing concentrations between 0.01 and 1000 ppm a.i., (e.g. 0.1, 1.0, 10 and 100 ppm a.i). For the combinations, compounds A and B were mixed in a weight ratio of 5:1 to 1:5 and five increasing concentrations were tested for each ratio.

[6] = test system: Pyricularia oryzae; assay type: cell-based
[7] = test system: Septoria tritici; assay: In vivo preventive Septoria tritici test (wheat); conditions: 21 days after inoculation
Method: After the spray coating has been dried, the plants are sprayed with a spore suspension of Septoria tritici.
The test is evaluated 21 days after the inoculation.

[8] = test system: Pyrenophora teres; assay: In vitro-Test with Pyrenophora teres; assay type: cell-based
[9] = Alternaria solani, 72 h, read-out: Efficacy in % found

OC(Cc1ccccc1Cl)(Cn1nc[nH]c1=S)C1(Cl)CC1 (centres unmarked) [1.018 prothioconazole, prothioconazole]
Efficacy in % found ([1]; Table B1, 2.5 ppm a.i.): 38% | Efficacy in % found ([1]; Table B1, 5 ppm a.i.): 59% | Efficacy in % found ([1]; Table B1, 10 ppm a.i.): 79%

CCCN(CC)CC1COC2(CCC(C(C)(C)C)CC2)O1 (centres unmarked) [1.020 spiroxamine, spiroxamine]
Efficacy in % found ([1]; Table B1, 25 ppm a.i.): 33% | Efficacy in % found ([1]; Table B1, 50 ppm a.i.): 44% | Efficacy in % found ([1]; Table B1, 100 ppm a.i.): 49% | Efficacy in % found ([2]; Table C1, 25 ppm a.i.): 23% | Efficacy in % found ([2]; Table C1, 50 ppm a.i.): 50% | Efficacy in % found ([2]; Table C1, 100 ppm a.i.): 75% | Efficacy in % found ([3]; Table A1, 25 ppm a.i., 3 days after inoculation): 13% | Efficacy in % found ([3]; Table A1, 50 ppm a.i., 3 days after inoculation): 38% | Efficacy in % found ([3]; Table A1, 100 ppm a.i., 3 days after inoculation): 49%

CC(C)(C)C(O)(CCc1ccc(Cl)cc1)Cn1cncn1 (centres unmarked) [1.021 tebuconazole, tebuconazole]
Efficacy in % found ([1]; Table B1, 2.5 ppm a.i.): 44% | Efficacy in % found ([1]; Table B1, 5 ppm a.i.): 44% | Efficacy in % found ([1]; Table B1, 10 ppm a.i.): 64% | pest or weed control at 2.5 ppm ([3]; Alternaria solani, 72 h, Table A1, 2.5 ppm a.i., 3 days after inoculation, read-out: Efficacy in % found): 5% | pest or weed control at 5 ppm ([3]; Alternaria solani, 72 h, Table A1, 5 ppm a.i., 3 days after inoculation, read-out: Efficacy in % found): 21% | pest or weed control at 10 ppm ([3]; Alternaria solani, 72 h, Table A1, 10 ppm a.i., 3 days after inoculation, read-out: Efficacy in % found): 74%

O=C(Nc1ccccc1)N(Cc1ccc(Cl)cc1)C1CCCC1 [4.005 pencycuron, pencycuron]
Efficacy in % found ([1]; Table B1, 25 ppm a.i.): 33% | Efficacy in % found ([1]; Table B1, 50 ppm a.i.): 33% | Efficacy in % found ([1]; Table B1, 100 ppm a.i.): 33% | pest or weed control at 25 ppm ([3]; Alternaria solani, 72 h, Table A1, 25 ppm a.i., 3 days after inoculation, read-out: Efficacy in % found): 5% | pest or weed control at 50 ppm ([3]; Alternaria solani, 72 h, Table A1, 50 ppm a.i., 3 days after inoculation, read-out: Efficacy in % found): 21% | pest or weed control at 100 ppm ([3]; Alternaria solani, 72 h, Table A1, 100 ppm a.i., 3 days after inoculation, read-out: Efficacy in % found): 33%

N#Cc1c(Cl)c(Cl)c(Cl)c(C#N)c1Cl [5.004 chlorothalonil, chlorothalonil]
Efficacy in % found ([1]; Table B2, 25 ppm a.i.): 8% | Efficacy in % found ([1]; Table B2, 50 ppm a.i.): 8% | pest or weed control at 25 ppm ([3]; Alternaria solani, 72 h, 25 ppm a.i., tomatoes, 3 days after inoculation, read-out: Efficacy in % found): 13% | pest or weed control at 50 ppm ([3]; Alternaria solani, 72 h, 50 ppm a.i., tomatoes, 3 days after inoculation, read-out: Efficacy in % found): 33%

Cc1nn(C)c(F)c1C(=O)Nc1ccccc1C(C)CC(C)C (centres unmarked) [Example 2.017, penflufen]
Efficacy in % found ([4]; 20 ppm a.i.): 56% | Efficacy in % found ([4]; 40 ppm a.i.): 89% | Efficacy in % found ([4]; 80 ppm a.i.): 100% | Ecotoxicity LC50-96 h found [5]: 0.62 ppm a.i. | Efficacy % ([6]; 1 ppm): 44% | Efficacy % ([6]; 5 ppm): 91% | Efficacy in % found ([7]; 20 ppm a.i.): 29% | Efficacy in % found ([7]; 40 ppm a.i.): 0% | Efficacy in % found ([7]; 80 ppm a.i.): 0%

CC1CC(C)(C)c2cccc(NC(=O)c3cn(C)nc3C(F)F)c21 (centres unmarked) [Example 2.027, 3-(difluoromethyl)-1-methyl-N-(1,1,3-trimethyl-2,3-dihydro-1H-inden-4-yl)-1H-pyrazole-4-carboxamide]
Efficacy in % found ([2]; Table C2, 1 ppm a.i.): 50% | Efficacy in % found ([2]; Table C2, 2 ppm a.i.): 95% | Efficacy in % found ([2]; Table C2, 4 ppm a.i.): 100% | Efficacy % ([8]; 4 ppm): 43% | Efficacy % ([8]; 20 ppm): 62% | pest or weed control at 62.5 ppm ([7]; Zymoseptoria tritici, 504 h, read-out: Efficacy in % found, 62.5 ppm a.i.): 25% | pest or weed control at 125 ppm ([7]; Zymoseptoria tritici, 504 h, read-out: Efficacy in % found, 125 ppm a.i.): 63% | pest or weed control at 1 ppm [3, 9]: 0% | pest or weed control at 2 ppm [3, 9]: 3% | pest or weed control at 4 ppm [3, 9]: 11%

mancozeb [5.013 mancozeb]
Efficacy in % found ([1]; Table B2, 12.5 ppm a.i.): 0% | Efficacy in % found ([1]; Table B2, 25 ppm a.i.): 0% | Efficacy in % found ([1]; Table B2, 50 ppm a.i.): 0% | Efficacy in % found ([3]; 12.5 ppm a.i., tomatoes, 3 days after inoculation): 28% | Efficacy in % found ([3]; 25 ppm a.i., tomatoes, 3 days after inoculation): 33% | Efficacy in % found ([3]; 50 ppm a.i., tomatoes, 3 days after inoculation): 77%
